Reference: patent US12419309B2, “Chemical composition for seed treatment” (Yara UK Limited, priority 2019, dated 2025)

System: seeds of leguminous crops
Test: Liquid composition coated on seeds of leguminous crops, dried and sowed in soil
Type: in vivo
Details: monoethanolamine as component of the composition
Description: The liquid composition as disclosed herein was coated on seeds of leguminous crops and the seeds were dried and sowed in soil. The germination rate was increased as well as the number of nodules, the mass of roots and the amount of dry matter in the shoots.

In the case of `NCCO` [Monoethanolamine], the “Effect on the growth of nodules” value is reported as “no detrimental effect”.
